Tests used:
[1] = Non-conditioned passive avoidance test in rats (antianxiety); assay type: in vivo, Wistar strain rats; set-up: key: Active: the number of shocks received by the test group is significantly higher than the control group by the Mann-Witney U test; settings: 25 mg/kg, oral or intraperitoneal
Procedure: The antianxiety effects of the novel compounds of the present invention have been assessd in a non-conditioned passive avoidance procedure described by J. R. Vogel, B. Beer and D. E. Clody, "A Simple and Reliable Conflict Procedure for Testing Antianxiety Agents", Psychopharmacologia, 21, 1-7 (1971). A conflict situation was induced in rats by a modification of this method.
Groups of 6 naive, Wistar strain rats, weighing 200-240 g each, were deprived of water for 48 hours and food for 24 hours. The test compounds were administered in single or graded, oral or intraperitoneal doses, suspended in a 2% starch vehicle containing 0.5% v/v polyethylene glycol and one drop of Polysorbate 80. Control animals received the vehicle alone. At 30 or 60 minutes each rat was placed in an individual plexiglass chamber. Water was available ad libitum from a tap located in the rear of the chamber. A 0.7 milliampere DC shocking current was established between the stainless steel grid floor and the tap. After 20 licks of non-shocked drinking, a shock was delivered for 2 seconds and then further shocks were delivered on a ratio of one shock for 2 seconds for every 20 licks. This was continued for a total of 3 minutes. The number of shocks taken by each rat during the 3 minute interval was recorded and compared to a control group.

[2] = Hypotensive activity in spontaneously hypertensive rats; assay type: in vivo, spontaneously hypertensive rats of the Okamoto strain; settings: 100 mg/kg by gavage, two doses 24 hours apart, measured at 28 hours after the initial dose; one or two rats
Procedure: The novel compounds of the present invention are active hypotensive agents and were tested for hypotensive activity by the method of P. S. Chan and D. Poorvin, Clinical and Experimental Hypertension, 1 (6), 817-830 (1979). […] One to 3 rats are used per test compound. A rat is dosed by gavage with a test compound suspended in 2% pre-boiled starch at a concentration of 50 mg/ml, at a dose of 100 mg/kg of body weight or less, with 0.9% sodium chloride loading at a dose of 25 ml/kg of body weight. A second identical dose of the test compound, without sodium chloride loading is given 24 hours later. At 28 hours after the initial dose the mean arterial blood pressure is measured by the method of Chan and Poorvin (see above). The procedure is repeated in a second and third rat when necessary. The results of this test on representative compounds of the present invention which were obtained using one or two rats, at a dose of 100 mg/kg of body weight appear below in Table I.

Hypoxic Survival Test = assay type: in vivo, Royal Hart mice; settings: 50 mg/kg i.p., 10% oxygen, 5 minutes
Procedure: Groups of 20 Royal Hart mice (6 weeks of age) are injected intraperitoneally with 10, 50 or 100 mg/kg of test compound 30 minutes prior to placing them in a hypoxic mixture (10% oxygen in 90% […]) and measuring survival after 5 minutes.
A separate group of 20 mice is injected intraperitoneally with saline solution (0.01 cc/g of body weight) and processed as described above.
Still another group of 20 mice is injected intraperitoneally with 0.125 mg/kg of physostigmine and processed as described above.

[3] = Passive Avoidance Anoxic Induced Amnesia Test; assay type: in vivo, Swiss-Webster, middle-aged mice; settings: 100 mg/kg i.p., 30 minutes prior to training and testing; over saline control
Description: Another in vivo test associated with decreased neural function in mammals is the Passive Avoidance Anoxic Induced Amnesia Test. This test is used to determine the attenuation of anoxic induced amnesia in mice treated with drug, as compared to saline treated control animals with no drug.
A shock-motivated, single trial, step-through passive avoidance procedure is used. Groups of 25 Swiss-Webster, middle-aged mice (9 months of age) are placed singly in the front chamber of a 2-chamber box and are allowed to voluntarily cross into the rear chamber. As soon as the mouse enters the rear chamber, a guillotine door automatically traps the animal and a mild electric shock (0.4 mA for 4 seconds) is delivered to its feet. Following the foot shock, the mice are initially placed in an anoxic environment (0% oxygen) for 12 seconds, which quickly induces unconsciousness. They are then placed in a hypoxic environment (15% oxygen) for four minutes which prolongs the oxygen deprived state, maintaining unconsciousness. All testing is performed 24 hours later, and in all cases the mice appear fully recovered from the previous anoxic/hypoxic treatment. All test compounds are administered intraperitoneally at a dose of 10-100 mg/kg, 30 minutes prior to training and testing. […]
The latency to enter the rear chamber is recorded for both training and testing. […]

Compound	Result (non-conditioned passive avoidance) [1]	Mean Arterial Blood Pressure [2]	% Survivors (Hypoxic Survival Test) [%]	% Improvement [3] [%]
N#Cc1c(N2CCN(Cc3cccc(Cl)c3)CC2)nn2c(-c3ccccc3)ccnc12 [2-[4-[(3-Chlorophenyl)methyl]-1-piperazinyl]-7-phenylpyrazolo[1,5-a]pyrimidine-3-carbonitrile]	Active			
Cc1cc(-c2ccccc2)n2nc(N3CCN(Cc4ccccc4)CC3)c(C#N)c2n1 [5-Methyl-7-phenyl-2-[4-(phenylmethyl)-1-piperazinyl]-pyrazolo[1,5-a]pyrimidine-3-carbonitrile]	Active	131 mm of mercury		
N#Cc1c(N2CCN(Cc3ccccc3)CC2)nn2c(-c3cccc(C(F)(F)F)c3)ccnc12 [2-[4-(Phenylmethyl)-1-piperazinyl]-7-[3-(trifluoromethyl)phenyl]pyrazolo[1,5-a]pyrimidine-3-carbonitrile]			52	44
N#Cc1c(N2CCOCC2)nn2c(-c3cccc(C(F)(F)F)c3)ccnc12 [2-(4-Morpholinyl)-7-[3-(trifluoromethyl)phenyl]pyrazolo[1,5-a]pyrimidine-3-carbonitrile]	Active	142 mm of mercury		
